Test results reported in ChEMBL document CHEMBL5360539, “RSK inhibitors as potential anticancer agents: Discovery, optimization, and challenges” (Eur J Med Chem, 2023).
Counter-ions that a name gives are not always drawn. Each block holds one molecule with its values, some of them ahead of it.

Assays:
[1] = target: Ribosomal protein S6 kinase alpha-1 (Homo sapiens, UniProt Q15418); test: Inhibition of RSK1 (unknown origin)
[2] = target: T1, Ribosomal protein S6 kinase alpha-3 (Homo sapiens, UniProt P51812); test: Inhibition of RSK2 (unknown origin)
T1 sequence (P51812 whole entry): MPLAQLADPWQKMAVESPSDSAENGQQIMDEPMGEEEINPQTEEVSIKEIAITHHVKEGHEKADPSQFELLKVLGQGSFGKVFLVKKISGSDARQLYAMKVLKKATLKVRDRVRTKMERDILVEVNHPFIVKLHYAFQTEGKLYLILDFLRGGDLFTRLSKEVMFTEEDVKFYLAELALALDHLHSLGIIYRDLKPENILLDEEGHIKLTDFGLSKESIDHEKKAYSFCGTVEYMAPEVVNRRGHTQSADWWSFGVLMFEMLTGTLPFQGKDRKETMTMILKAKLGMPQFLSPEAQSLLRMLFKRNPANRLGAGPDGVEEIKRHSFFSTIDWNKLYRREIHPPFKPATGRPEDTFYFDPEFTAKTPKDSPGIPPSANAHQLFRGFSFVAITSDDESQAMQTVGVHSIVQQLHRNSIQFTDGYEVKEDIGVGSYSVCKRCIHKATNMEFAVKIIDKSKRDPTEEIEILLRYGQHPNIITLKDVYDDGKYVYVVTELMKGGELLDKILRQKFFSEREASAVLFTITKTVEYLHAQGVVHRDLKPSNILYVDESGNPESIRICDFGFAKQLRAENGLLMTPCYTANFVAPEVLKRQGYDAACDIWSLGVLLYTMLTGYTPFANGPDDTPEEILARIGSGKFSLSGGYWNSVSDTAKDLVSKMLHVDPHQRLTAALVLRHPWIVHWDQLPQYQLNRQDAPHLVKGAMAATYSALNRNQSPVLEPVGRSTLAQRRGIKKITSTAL

[3] = target: Ribosomal protein S6 kinase alpha-2 (Homo sapiens, UniProt Q15349); test: Inhibition of RSK3 (unknown origin)
Sequence of Ribosomal protein S6 kinase alpha-2 (Q15349 whole entry): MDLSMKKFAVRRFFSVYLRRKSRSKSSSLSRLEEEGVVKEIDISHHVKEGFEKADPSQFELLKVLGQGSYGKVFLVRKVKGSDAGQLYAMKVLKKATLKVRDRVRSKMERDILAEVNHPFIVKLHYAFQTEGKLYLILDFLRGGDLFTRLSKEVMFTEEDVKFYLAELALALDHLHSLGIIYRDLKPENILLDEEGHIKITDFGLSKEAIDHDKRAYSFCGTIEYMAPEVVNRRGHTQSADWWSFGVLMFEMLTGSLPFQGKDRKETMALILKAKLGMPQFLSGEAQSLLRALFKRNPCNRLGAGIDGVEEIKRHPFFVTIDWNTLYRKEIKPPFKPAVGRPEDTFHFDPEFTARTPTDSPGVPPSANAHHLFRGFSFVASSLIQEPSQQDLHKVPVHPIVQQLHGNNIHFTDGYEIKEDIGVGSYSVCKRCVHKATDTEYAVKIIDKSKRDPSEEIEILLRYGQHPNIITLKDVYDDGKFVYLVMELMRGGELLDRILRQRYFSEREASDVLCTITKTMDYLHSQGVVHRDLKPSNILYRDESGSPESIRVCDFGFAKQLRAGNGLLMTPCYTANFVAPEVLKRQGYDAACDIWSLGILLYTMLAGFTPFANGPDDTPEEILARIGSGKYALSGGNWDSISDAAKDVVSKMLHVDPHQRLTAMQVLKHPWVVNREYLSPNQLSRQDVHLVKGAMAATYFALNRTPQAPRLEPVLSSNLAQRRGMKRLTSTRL

[4] = target: T1, Ribosomal protein S6 kinase alpha-3; test: Inhibition of wild type RSK2 (unknown origin)
[5] = target: T1, Ribosomal protein S6 kinase alpha-3; test: Inhibition of recombinant His-tagged RSK2 (unknown origin) expressed in Sf9 cells
[6] = target: Ribosomal protein S6 kinase alpha-6 (Homo sapiens, UniProt Q9UK32); test: Inhibition of RSK4 (unknown origin)
Sequence of Ribosomal protein S6 kinase alpha-6 (Q9UK32 whole entry): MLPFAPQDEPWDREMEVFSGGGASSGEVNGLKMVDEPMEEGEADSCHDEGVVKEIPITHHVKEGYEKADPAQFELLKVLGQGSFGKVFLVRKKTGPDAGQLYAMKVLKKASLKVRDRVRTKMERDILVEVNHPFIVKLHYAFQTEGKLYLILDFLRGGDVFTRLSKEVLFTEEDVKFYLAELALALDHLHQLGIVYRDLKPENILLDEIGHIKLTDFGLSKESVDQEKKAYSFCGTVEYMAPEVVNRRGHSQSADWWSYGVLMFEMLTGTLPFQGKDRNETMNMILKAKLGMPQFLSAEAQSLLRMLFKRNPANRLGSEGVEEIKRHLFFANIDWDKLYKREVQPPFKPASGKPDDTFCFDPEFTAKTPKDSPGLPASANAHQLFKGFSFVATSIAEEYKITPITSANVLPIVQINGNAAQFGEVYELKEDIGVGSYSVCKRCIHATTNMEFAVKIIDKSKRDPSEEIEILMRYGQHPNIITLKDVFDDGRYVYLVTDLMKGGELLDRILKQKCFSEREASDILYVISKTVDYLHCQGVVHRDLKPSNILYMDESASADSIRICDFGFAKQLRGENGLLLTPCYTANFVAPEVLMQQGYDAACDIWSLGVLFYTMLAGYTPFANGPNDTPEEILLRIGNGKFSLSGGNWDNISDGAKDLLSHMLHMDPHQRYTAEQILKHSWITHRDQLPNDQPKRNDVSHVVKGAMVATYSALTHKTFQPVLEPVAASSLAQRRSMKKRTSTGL

[7] = Inhibition of recombinant N-terminal RSK (unknown origin) expressed in Sf21 cells; set-up: species or system Homo sapiens
[8] = target: T1, Ribosomal protein S6 kinase alpha-3; test: Inhibition of human recombinant RSK2
[9] = target: T1, Ribosomal protein S6 kinase alpha-3; test: Inhibition of RSK2 expressed in human MCF7 cells incubated for 1 hrs by; type: cell-based

Sequence of Ribosomal protein S6 kinase alpha-1 (Q15418 whole entry): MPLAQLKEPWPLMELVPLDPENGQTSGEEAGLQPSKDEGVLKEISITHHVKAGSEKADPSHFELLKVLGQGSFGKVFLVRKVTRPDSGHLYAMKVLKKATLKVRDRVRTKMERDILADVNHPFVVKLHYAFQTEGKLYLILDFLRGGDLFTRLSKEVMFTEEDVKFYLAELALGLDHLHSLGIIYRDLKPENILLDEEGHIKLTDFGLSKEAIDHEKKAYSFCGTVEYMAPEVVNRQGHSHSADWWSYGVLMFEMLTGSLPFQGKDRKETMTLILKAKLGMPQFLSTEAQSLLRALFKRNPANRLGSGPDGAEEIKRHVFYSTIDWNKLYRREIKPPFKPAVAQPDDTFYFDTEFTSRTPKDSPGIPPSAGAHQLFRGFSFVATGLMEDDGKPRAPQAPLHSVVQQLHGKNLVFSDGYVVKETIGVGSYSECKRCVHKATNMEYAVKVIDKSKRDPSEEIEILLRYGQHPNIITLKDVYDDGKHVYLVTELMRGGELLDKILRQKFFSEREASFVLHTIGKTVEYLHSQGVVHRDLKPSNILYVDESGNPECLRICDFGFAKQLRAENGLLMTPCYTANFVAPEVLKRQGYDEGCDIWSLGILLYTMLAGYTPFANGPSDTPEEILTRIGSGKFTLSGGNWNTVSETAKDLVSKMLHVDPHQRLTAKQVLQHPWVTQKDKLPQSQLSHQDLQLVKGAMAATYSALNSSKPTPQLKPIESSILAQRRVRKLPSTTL

IC50 [1]: 100 nM
SMILES: O=C1Nc2ccccc2/C1=C1/Nc2ccccc2/C1=N\O

IC50 [1]: 89 nM
SMILES: CC(=O)O[C@@H]1[C@@H](OC(C)=O)[C@@H](O)[C@H](Oc2c(-c3ccc(O)cc3)oc3cc(O)cc(O)c3c2=O)O[C@H]1C

IC50 [2]: 2400 nM | IC50 [3]: 1200 nM | IC50 [1]: 1500 nM
SMILES: O=C1c2ccccc2-c2c(NCCc3ccccc3)c(=O)[nH]c3cccc1c23

IC50 [4]: 15 nM
SMILES: Cc1ccc(-c2c(C(=O)CCl)n(CCCO)c3ncnc(N)c23)cc1

IC50 [5]: 870 nM
SMILES: CCCNC(=O)O[C@H]1[C@H](CCC)C[C@@H](Oc2c(-c3ccc(O)cc3)oc3cc(O)cc(O)c3c2=O)[C@H](O)[C@@H]1OC(=O)NCCC

IC50 [6]: 6200 nM
SMILES: CCCNC(=O)O[C@@H]1[C@@H](OC(C)=O)[C@@H](O)[C@H](Oc2c(-c3ccc(O)cc3)oc3cc(O)cc(O)c3c2=O)O[C@H]1CCC

IC50 [5]: 870 nM
SMILES: CCC[C@@H]1C[C@@H](Oc2c(-c3ccc(O)cc3)oc3cc(O)cc(O)c3c2=O)[C@H](O)[C@H](OC(C)=O)[C@H]1OC(C)=O

IC50 [7]: 10 nM
SMILES: CC(C)CCN1c2nc(Nc3cc(F)c(O)c(F)c3)ncc2N(C)C(=O)C1C (stereo unspecified)

IC50 [1]: 200 nM
SMILES: Cn1cc(C2=C(c3cn(CCCSC(=N)N)c4ccccc34)C(=O)NC2=O)c2ccccc21 [BISINDOLYLMALEIMIDE IX]

IC50 [8]: 225000 nM
SMILES: COC(=O)/C=C/C(=O)OC [DIMETHYL FUMARATE]

IC50 [9]: 4770 nM
SMILES: O=C1C[C@@H](c2ccc(O)c(O)c2)Oc2cc(O)cc(O)c21 [ERIODICTYOL]

IC50 [1]: 610 nM
SMILES: CN(C)CCCn1cc(C2=C(c3c[nH]c4ccccc34)C(=O)NC2=O)c2ccccc21 [GF-109203]

SMILES: CC(C)=CCC1=C(O)C(=O)c2ccccc2C1=O [LAPACHOL]
IC50 [2]: 2000 nM

IC50 [1]: 100 nM
SMILES: Cn1cc(C2=C(c3ccc(Cl)cc3Cl)C(=O)NC2=O)c2ccccc21 [SB-216763]
